Experimental data: patent US20050026950A1, “Methods of therapeutic treatment using retinoids to achieve consistent bioavailability” (Allergan, Inc., priority 2003, published 2005)

Assays:
Type in all cases: in vivo, human
[1] = Two placebo-controlled 24-week safety studies of oral tazarotene plus 16- to 24-week dose-response evaluations
Method: Two multicenter, double-blind, randomized, placebo-controlled 24-week studies of identical design are conducted to evaluate the safety of oral tazarotene. In addition, 16- to 24-week dose-response evaluations are performed.
In the two safety trials, the incidence of adverse side effects with a 4.5 mg dose administered orally once daily is compared to the incidence of the same side effects with a placebo. […] The majority of these were mild in severity and typical of adverse effects associated with oral retinoids.

[2] = PK and PD interaction studies of oral tazarotene and oral contraceptives in healthy volunteers; settings: orally, up to 6 mg once daily
Method: It is the objective of this study to determine if there are pharmacokinetic (PK) and pharmacodynamic (PD) interactions between tazarotene and commonly prescribed oral contraceptives (OCs) when coadministered together.
Three separate clinical studies are conducted to evaluate the PK and PD interactions of oral tazarotene and OCs in healthy volunteers. Two studies evaluate daily doses of norethindrone (NE)/ethinyl estradiol (EE) with daily doses of tazarotene 1.1 mg (N=27) and 6 mg (N=29). The third study assesses the daily doses of norgestimate (NGM)/EE with daily doses of tazarotene 6 mg (N=26). OCs are administered for three consecutive menstrual cycles. Daily doses of tazarotene are started during the 2nd cycle and continued through the end of the studies. PK parameters for EE, NE, and NGM (AUC0-24 and Cmax) are determined before tazarotene dosing and after tazarotene dosing on day 6 of the 2nd and 3rd cycles. Serum concentrations of luteinizing hormone (LH) and follicle-stimulating hormone (FSH)-markers of contraceptive efficacy are also evaluated before tazarotene dosing and after tazarotene dosing on days 2, 4, and 6 of the 2nd and 3rd cycles. Serum progesterone levels are assessed on days 18 and 20 of the 2nd and 3rd cycles. […]

[3] = Two placebo-controlled dose-ranging safety studies of oral tazarotene in nodulocystic acne
Method: Two placebo-controlled dose-ranging studies are conducted to evaluate the safety of oral tazarotene in patients having nodulocystic acne. In the first study, patients receive orally administered tazarotene at daily doses of 0.4 mg to 2.8 mg in 96 (71+25) patients (12 weeks treatment plus 12 weeks post-treatment). In the second study, daily doses of 0.75 mg to 6 mg tazarotene are administered to 181 patients (24 weeks treatment plus 12 weeks post-treatment).

[4] = Studies of orally administered tazarotene for acne, adverse event monitoring; settings: combined data from Studies 1 and 2 (N = 223)
Method: Studies are conducted on orally administered tazarotene for the treatment of acne. Adverse events (side effects) are monitored.

severe psoriasis = test: Patient with severe psoriasis taking Ortho-Novum treated with tazarotene; settings: 6 mg per day, after 30 days
Text: The patient presents symptoms of severe psoriasis. The symptoms include lesions approximately 4 to 10 centimeters across appearing as raised patches of wine red skin many of which are covered in silvery white scales. The lesions are mostly dry and rough, and quite often noticeably warm to the touch. The lesions are present on the elbows, knees, scalp, and groin area. The patient experiences intense burning and itching associated with the lesions.
The patient is currently taking Ortho-Novum® for contraception.
Tazarotene at a dose of 6 mg per day is prescribed.

[5] = tested on: moderate to very severe plaque psoriasis; test: Open-label extension study of oral tazarotene in plaque psoriasis non-responders
[6] = 4.5 mg orally once daily, two safety trials
[7] = 4.5 mg once daily, 12-week extension
[8] = 4.5 mg once daily, 12-week extension, across both groups

CCOC(=O)c1ccc(C#Cc2ccc3c(c2)C(C)(C)CCS3)nc1 [tazarotene]
incidence of agitation ([1]; 4.5 mg orally once daily): < 1%
incidence of altered hormone levels (TSH, T4, thyroid function test) ([1]; 4.5 mg orally once daily): 0%
incidence of anxiety ([1]; 4.5 mg orally once daily): 1%
incidence of depression ([1]; 4.5 mg orally once daily): 1%
incidence of emotional lability ([1]; 4.5 mg orally once daily): 3%
incidence of psychosis ([1]; 4.5 mg orally once daily): 0%
incidence of psychotic depression ([1]; 4.5 mg orally once daily): 0%
incidence of hypertriglyceridemia, hypercholesterolemia, abnormal liver function tests, increased ALT/AST, desquamation, eye dryness, alopecia ([1]; 4.5 mg orally once daily vs placebo): essentially the same incidence with oral tazarotene as with placebo
incidence of arthralgia [1, 6]: 17%
incidence of back pain [1, 6]: 7%
incidence of cheilitis [1, 6]: 66%
incidence of dermatitis [1, 6]: 1%
incidence of dry skin [1, 6]: 24%
incidence of foot pain [1, 6]: 3%
incidence of headache [1, 6]: 19%
incidence of hyperglycemia [1, 6]: 2%
incidence of joint disorder [1, 6]: 4%
incidence of myalgia [1, 6]: 14%
incidence of nasal dryness [1, 6]: 4%
incidence of rash [1, 6]: 3%
incidence of patients discontinuing due to adverse effects ([1]; 0.4 to 1.1 mg oral (n=105)): approximately 2%
incidence of patients discontinuing due to adverse effects ([1]; 2.1 to 2.8 mg oral (n=21)): 10%
effect on the PK or efficacy of NE/EE and NGM/EE oral contraceptives [2]: does not affect
changes in urinalysis, chemistry, or hematology measures (liver function tests, triglycerides, total and HDL cholesterol) ([3]; 0.4 mg to 6 mg daily): no consistent dose-related clinically significant changes
ligament calcification, osteophyte formation, serum bone alkaline phosphatase, amino terminal telopeptides, bone density ([3]; 0.4 mg to 6 mg daily): not associated with any clinically significant
incidence of arthralgia ([3]; 2.8 mg, n=11, treatment period): 9%
incidence of asthenia ([3]; 2.8 mg, n=11, treatment period): 0%
incidence of cheilitis ([3]; 2.8 mg, n=11, treatment period): 64%
incidence of dry skin ([3]; 2.8 mg, n=11, treatment period): 18%
incidence of headache ([3]; 2.8 mg, n=11, treatment period): 9%
incidence of joint disorder ([3]; 2.8 mg, n=11, treatment period): 27%
incidence of myalgia ([3]; 2.8 mg, n=11, treatment period): 0%
severe dry skin ([3]; 3 mg and 6 mg groups): No patient has severe dry skin
Emotional lability, patients ([3]; 3 mg group): 3%
mild cheilitis ([3]; 3 mg group): 25 patients
mild dry skin ([3]; 3 mg group): 11 patients
moderate cheilitis ([3]; 3 mg group): 3 patients
moderate dry skin ([3]; 3 mg group): 2 patient
severe cheilitis ([3]; 3 mg group): 1 patient
Depression, patients ([3]; 3 mg group (2 mild, 1 severe)): 8%
incidence of arthralgia ([3]; 3 mg, n=37, treatment period): 8%
incidence of asthenia ([3]; 3 mg, n=37, treatment period): 19%
incidence of cheilitis ([3]; 3 mg, n=37, treatment period): 78%
incidence of dry skin ([3]; 3 mg, n=37, treatment period): 35%
incidence of headache ([3]; 3 mg, n=37, treatment period): 19%
incidence of joint disorder ([3]; 3 mg, n=37, treatment period): 14%
incidence of myalgia ([3]; 3 mg, n=37, treatment period): 16%
Depression, patients ([3]; 6 mg group): none
Emotional lability, patients ([3]; 6 mg group): 14%
mild cheilitis ([3]; 6 mg group): 27 patients
mild dry skin ([3]; 6 mg group): 17 patients
moderate cheilitis ([3]; 6 mg group): 6 patients
moderate dry skin ([3]; 6 mg group): 1 patient
severe cheilitis ([3]; 6 mg group): 1 patient
incidence of arthralgia ([3]; 6 mg, n=36, treatment period): 28%
incidence of asthenia ([3]; 6 mg, n=36, treatment period): 19%
incidence of cheilitis ([3]; 6 mg, n=36, treatment period): 94%
incidence of dry skin ([3]; 6 mg, n=36, treatment period): 50%
incidence of headache ([3]; 6 mg, n=36, treatment period): 36%
incidence of joint disorder ([3]; 6 mg, n=36, treatment period): 19%
incidence of myalgia ([3]; 6 mg, n=36, treatment period): 25%
patients withdrawing from either study due to adverse events ([3]; both studies, 7/277 patients including placebo): 2.5%
Cheilitis [4]: 134 (60.1) number (%) of patients
Conjunctivitis [4]: 0 (0.0) number (%) of patients
Desquamation central face/Desquamation [4]: 1 (0.4) number (%) of patients
Dry Skin [4]: 79 (35.4) number (%) of patients
Dry nose [4]: 7 (3.1) number (%) of patients
Epistaxis [4]: 6 (2.7) number (%) of patients
Fingertip peeling/Desquamation [4]: 1 (0.4) number (%) of patients
Headache [4]: 26 (11.7) number (%) of patients
Irritation of eyes [4]: 0 (0.0) number (%) of patients
Joint pain/Arthralgia [4]: 18 (8.1) number (%) of patients
Peeling/Desquamation [4]: 1 (0.4) number (%) of patients
Pruritus [4]: 10 (4.5) number (%) of patients
Rash-dermatitis/Rash [4]: 7 (3.1) number (%) of patients
Red Scaly face/Desquamation [4]: 1 (0.4) number (%) of patients
Skin fragility/Skin disorder [4]: 1 (0.4) number (%) of patients
psoriasis symptoms and lesions (severe psoriasis): symptoms of itching and burning are relieved and the severity of their lesions are substantially lessened
changes in liver function test values or cholesterol levels [5, 7]: no clinically significant changes
serious adverse events related to study treatment [5, 7]: no serious adverse events considered related to the study treatment
incidence of arthralgia [5, 8]: 20%
incidence of asthenia [5, 8]: 6%
incidence of back pain [5, 8]: 11%
incidence of cheilitis [5, 8]: 70%
incidence of dry skin [5, 8]: 25%
incidence of headache [5, 8]: 11%
incidence of hypertriglyceridemia [5, 8]: 6%
incidence of infection [5, 8]: 10%
incidence of myalgia [5, 8]: 15%
Clinical success (a 2-grade reduction in OLA), patients ([5]; end of the 12-week post-treatment period): 16%
